Results as given in ChEMBL document CHEMBL4229412, “Design, synthesis, in vitro and in vivo evaluation, and structure-activity relationship (SAR) discussion of novel dipeptidyl boronic acid proteasome inhibitors as orally available anti-cancer agents for the treatment of multiple myeloma and mechanism studies” (Bioorg Med Chem, 2018).

Test: in vivo
Conditions: Sprague-Dawley, rat, po, 1.2 mg/kg

Structure (SMILES): CC(C)C[C@H](NC(=O)CNC(=O)c1cc(Cl)ccc1Cl)B(O)O [IXAZOMIB]
- bioavailability: 27.8%
